Our source for the inhibition values is patent publication US7851474B2, “Dipiperazinyl ketones and related analogues” (Neurogen Corporation, priority 2005, dated 2010).

Like-named read-outs stand apart in the source and are kept apart here.

The assay addresses T1, chimeric human H3 receptor (Homo sapiens, UniProt Q9Y5N1, E19D).
T1 construct: made in house; host or cells: Sf9 insect cells (baculovirus infection); P2 membrane preparation
Kind of assay: Chimeric human H3 receptor screening GTP binding assay (inhibition of histamine-stimulated GTP-gamma35S binding, Example 8). The following applies: 1 h, read-out: percent inhibition of agonist-induced GTP-gammaS binding to H3. The format is biochemical. A digest of the protocol:
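Data are percent inhibition of the 1 μM histamine-stimulated GTP-gamma35S (125 pM) binding, after non-specific binding (10 uM GTP-gammaS) is subtracted. Test compound at 4 μM. Incubation was 60 min at room temperature with Sf9 membranes bearing receptor plus G-protein subunits, buffer pH 7.4 with 10 μM GDP, and filtration read-out.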

The mark [1] stands for this setting: assay described in Example 8, symbol + in column headed Ki of Table II.
Where [2] appears, read: Table II "Ki", symbol "+": assay described in Example 8.
[3] abbreviates: "+" in Ki of Table II, assay of Example 8.
Where [4] appears, read: Table II, "+" in the column headed Ki, assay of Example 8.

T1 sequence (Q9Y5N1 with tags, fused parts or gaps E19D): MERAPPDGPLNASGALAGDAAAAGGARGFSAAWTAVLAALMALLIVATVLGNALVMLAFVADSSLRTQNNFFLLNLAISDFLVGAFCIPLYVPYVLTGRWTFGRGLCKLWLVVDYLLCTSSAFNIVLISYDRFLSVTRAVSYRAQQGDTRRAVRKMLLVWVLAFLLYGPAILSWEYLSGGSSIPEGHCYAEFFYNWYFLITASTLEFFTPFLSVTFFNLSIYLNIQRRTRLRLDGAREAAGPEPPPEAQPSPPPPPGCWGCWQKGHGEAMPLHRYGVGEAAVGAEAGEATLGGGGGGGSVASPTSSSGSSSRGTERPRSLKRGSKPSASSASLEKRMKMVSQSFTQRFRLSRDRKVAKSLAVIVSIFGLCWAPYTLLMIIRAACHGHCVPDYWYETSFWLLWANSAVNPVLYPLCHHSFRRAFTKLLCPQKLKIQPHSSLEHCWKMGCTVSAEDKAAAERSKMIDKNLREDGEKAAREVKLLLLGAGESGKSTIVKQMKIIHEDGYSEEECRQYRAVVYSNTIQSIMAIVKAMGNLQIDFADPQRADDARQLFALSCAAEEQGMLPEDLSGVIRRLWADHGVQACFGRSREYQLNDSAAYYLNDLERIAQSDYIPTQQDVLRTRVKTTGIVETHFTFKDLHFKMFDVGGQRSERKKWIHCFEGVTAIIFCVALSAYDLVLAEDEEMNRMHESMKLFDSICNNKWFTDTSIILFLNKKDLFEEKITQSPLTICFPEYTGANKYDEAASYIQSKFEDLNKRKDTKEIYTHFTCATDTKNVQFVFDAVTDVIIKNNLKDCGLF

A word on the inhibition: it is the drop in the measured response relative to a control, in per cent. Consider `O=C(CN1CCN(C(=O)c2sccc2Cl)CC1)N1CCN(C2CCC2)CC1` [Compound 398, 1-[(3-chloro-2-thienyl)carbonyl]-4-[2-(4-cyclobutylpiperazin-1-yl)-2-oxoethyl]piperazine], for which the inhibition at 4 µM under setting [1] was greater than 90%.

On to `Cc1cc(C)c(C(=O)N2CCN(CC(=O)N3CCN(C4CCC4)CC3)CC2)c(C)c1` [Compound 796, 1-cyclobutyl-4-{[4-(mesitylcarbonyl)piperazin-1-yl]acetyl}piperazine], for which the inhibition at 4 µM under setting [2] is greater than 90%.

With `O=C(CN1CCN(C(=O)c2ccccn2)CC1)N1CCN(C2CCC2)CC1` [Compound 799, 1-cyclobutyl-4-{[4-(pyridin-2-ylcarbonyl)piperazin-1-yl]acetyl}piperazine], the inhibition at 4 µM under setting [2] is greater than 90%.

In the case of `CCC(C)N1CCN(C(=O)CN2CCN(C(C)=O)CC2)CC1` (stereo not shown) [Compound 486, 1-acetyl-4-[2-(4-sec-butylpiperazin-1-yl)-2-oxoethyl]piperazine], under setting [3], the inhibition at 4 µM was greater than 90%.

On to `O=C(CN1CCN(C(=O)c2cccc(Oc3ccccc3)c2)CC1)N1CCN(C2CCC2)CC1` [Compound 764, 1-cyclobutyl-4-{[4-(3-phenoxybenzoyl)piperazin-1-yl]acetyl}piperazine], for which the inhibition at 4 µM under setting [4] is greater than 90%.

Consider `O=C(CN1CCN(C(=O)c2cc(Cl)nc(Cl)c2)CC1)N1CCN(C2CCC2)CC1` [Compound 692], for which, under setting [4], the inhibition at 4 µM is greater than 90%.

Turning to `CNc1ccc(C(=O)N2CCN(CC(=O)N3CCN(C4CCC4)CC3)CC2)cc1` [Compound 1088], the inhibition at 4 µM (Table II, assay of Example 8, "+" in Ki) was greater than 90%.

For `CCCCc1ccc(C(=O)N2CCN(CC(=O)N3CCN(C4CCC4)CC3)CC2)nc1` [Compound 412, 1-[(5-butylpyridin-2-yl)carbonyl]-4-[2-(4-cyclobutylpiperazin-1-yl)-2-oxoethyl]piperazine], under setting [1], the inhibition at 4 µM was greater than 90%.

For `O=C(/C=C/c1ccc(Cl)c(Cl)c1)N1CCN(CC(=O)N2CCN(C3CCC3)CC2)CC1` [Compound 527, 1-cyclobutyl-4-({4-[(2E)-3-(3,4-dichlorophenyl)prop-2-enoyl]piperazin-1-yl}acetyl)piperazine], the inhibition at 4 µM under setting [3] was greater than 90%.

Take `Cc1cccc(C(=O)N2CCN(CC(=O)N3CCN(C4CCC4)CC3)CC2)c1N` [Compound 892, 2-({4-[2-(4-cyclobutylpiperazin-1-yl)-2-oxoethyl]piperazin-1-yl}carbonyl)-6-methylaniline]: the inhibition at 4 µM under setting [2] is greater than 90%.

As to `O=C(CN1CCN(C(=O)C(c2ccccc2)c2ccccc2)CC1)N1CCN(C2CCC2)CC1` [Compound 794, 1-cyclobutyl-4-{[4-(diphenylacetyl)piperazin-1-yl]acetyl}piperazine], under setting [2], the inhibition at 4 µM is greater than 90%.

Turning to `O=C(Cc1cccc(F)c1)N1CCN(CC(=O)N2CCN(C3CCC3)CC2)CC1` [Compound 550, 1-cyclobutyl-4-({4-[(3-fluorophenyl)acetyl]piperazin-1-yl}acetyl)piperazine], the inhibition at 4 µM under setting [3] is greater than 90%.

`Cc1ccc(C(=O)N2CCN(CC(=O)N3CCN(C4CCC4)CC3)CC2)cc1N` [Compound 1153, 5-({4-[2-(4-cyclobutylpiperazin-1-yl)-2-oxoethyl]piperazin-1-yl}carbonyl)-2-methylaniline]: the inhibition at 4 µM (assay of Example 8, "+" in Ki of Table II) was greater than 90%.

Take `CCOc1ccc(CC(=O)N2CCN(CC(=O)N3CCN(C4CCC4)CC3)CC2)cc1OC` [Compound 557, 1-cyclobutyl-4-({4-[(4-ethoxy-3-methoxyphenyl)acetyl]piperazin-1-yl}acetyl)piperazine]: under setting [3], the inhibition at 4 µM was greater than 90%.

On to `O=C(CN1CCN(C(=O)c2ccc3ccccc3c2)CC1)N1CCN(C2CCC2)CC1` [Compound 716, 1-cyclobutyl-4-{[4-(2-naphthoyl)piperazin-1-yl]acetyl}piperazine], for which the inhibition at 4 µM under setting [4] is greater than 90%.

As to `COc1ccc(C(=O)N2CCN(CC(=O)N3CCN(C4CCC4)CC3)CC2)c(OC)c1` [Compound 677, 1-cyclobutyl-4-{[4-(2,4-dimethoxybenzoyl)piperazin-1-yl]acetyl}piperazine], the inhibition at 4 µM under setting [4] was greater than 90%.
